Converted amounts (≈) assume the structure as drawn. Like-named read-outs stand apart in the source and are kept apart here. Peptide text beside a SMILES is read from it. * marks the point of attachment. Orn(α-tetramethylguanidino) = CN(C)C(=N[C@@H](CCCN)C(=O)*)N(C)C
What was measured:
[1] = system: E. coli BL21 (DE3) RIL ribosome extract; details: values published for E. coli BL21 (DE3) RIL ribosome extract; read-out: Kd (printed in column Ros); cited from earlier work
Description: Table 2 Antibacterial activities, dissociation (Kd), and inhibition constants (Ki) of ribosome binding obtained for all PrAMPs included in the current study for E. coli strains BW25113 (BW) and Rosetta DE3 pLysS (Ros). | column: Kd [µmol/L] ** / Ros

[2] = system: E. coli BL21 (DE3) RIL ribosome extract; details: values published for E. coli BL21 (DE3) RIL ribosome extract; read-out: Ki, cf-Onc112; cited from earlier work
Description: Table 2 Antibacterial activities, dissociation (Kd), and inhibition constants (Ki) of ribosome binding obtained for all PrAMPs included in the current study for E. coli strains BW25113 (BW) and Rosetta DE3 pLysS (Ros). | column: Ki [µmol/L] *** / cf-Onc112

[3] = system: E. coli BL21 (DE3) RIL ribosome extract; details: values published for E. coli BL21 (DE3) RIL ribosome extract; read-out: Ki, cf-Api137; cited from earlier work
[4] = system: 70S ribosome, ribosomal binding site of Api805; test: Fluorescence polarization competition with cf-Api805; parameters: species or system Escherichia coli; details: Figure S2, twice in triplicate
Protocol: Ki was determined for ribosome extracts using cf-labeled and unlabeled peptides in ribosome preparation buffer. Black 384-well plates were prepared as described above. Unlabeled peptides or antibiotics (20 μL, 656 μmol/L) were added and 2-fold serially diluted in 23 wells in ribosome preparation buffer. […] The fluorescence polarization was measured on a […] microplate reader in the top read position (λexc = 485 nm, λem = 535 nm) in triplicate on at least two different days. […] Inhibition constants, Ki, were calculated as described by Mathias and Jung. page 9: 140 140 120 120 100 100 80 80 60 60 40 40 […]. […]. […] 0 0 -20 -20 10 -2 1 10 2 10 4 10 6 10 -2 1 10 2 10 4 10 6 Pept ide Concent r at ion [ nM] Pept ide Concent r at ion [ nM] 140 140 120 120 100 100 80 80 60 60 40 40 20 Chlor […] ol vs. […] -20 -20 10 -2 1 10 2 10 4 10 6 10 -2 1 10 2 10 4 10 6 Ant ibiot ic Concent r at ion [ nM] Antibiotic Concentration [nM] 140 120 100 80 60 40 […] -20 10 -2 1 10 2 10 4 10 6 Ant ibiot ic Concent r at ion [ nM] Figure S2. […] tested as control in competition with Api137 or erythromycin. Experiments were done twice in triplicates. Error bars show the standard deviation of all six replicates. The horizontal dotted line separates positive and negative ranges on the Y-axis. - S9 - (also on this page, place not known: […]

E. coli BW25113 ΔsbmA = format: cell-based, Escherichia coli
Protocol: (§1) The minimal inhibitory concentrations (MIC) were determined at least twice in triplicate using a liquid broth microdilution assay in sterile 96-well plates and a total volume of 100 μL per well. Aqueous peptide solutions were serially 2-fold diluted in 25% MHBII or 33% TSB medium in a volume of 50 µL. An overnight culture was diluted in 25% MHBII or 33% TSB medium to 1.5 × 10^7 CFU/mL, and an aliquot of 50 μL was added to each well. The final cell count in each well was 7.5 × 10^6 CFU/mL. The plates were incubated at 37 °C for 20 ± 2 h. The turbidity of each well was measured at a wavelength of 600 nm. The MIC was defined as the lowest peptide concentration where the turbidity was identical to medium only.

[5] = system: E. coli BW25113 ΔsbmA +psbmA; format: cell-based, Escherichia coli
Protocol: as §1

[6] = system: in vitro protein translation (GFP expression); test: In vitro translation assay (GFP fluorescence, PureExpress Delta RF123 kit); format: biochemical, Escherichia coli
Protocol: Next, we investigated whether Api805 inhibits protein translation in vitro by recording the fluorescence of expressed GFP (Figure 2). As Api137 inhibits protein translation by trapping release factors RF1 and RF2, the fluorescence was measured in the absence of release factor and in the presence of RF1 or RF2. We used a ribosome concentration of 2.4 µmol/L, which is ~[…] than the ribosome concentration in E. coli. […] Furthermore, RF2 of PureExpress® was isolated from an E. coli K-12 strain that carries an A246T substitution, reducing its susceptibility to apidaecin [15, 23]. The inhibition was measured for peptide concentrations of 0.05, 5, and 50 µmol/L relative to the fluorescence obtained without a PrAMP (100%).
GFP was expressed using an NEB PureExpress Delta RF123 kit (New England Biolabs, Ipswich, MA, USA). The sfGFP DNA template coding for a UAA stop codon was amplified from the pY71sfGFP plasmid by PCR using sfGFP primers (Table S3). Release factor 1 (RF1) included in the kit was 50-fold diluted (v/v) in freshly prepared 1x pure system buffer (PSB, 1 mol/L magnesium acetate, 0.5 mol/L K3PO4 (pH 7.3), 1 mol/L potassium glutamate, 1 mol/L NH4Cl, 0.5 mol/L CaCl2, 1 mol/L spermidine, 0.1 mol/L putrescine, 0.1 mol/L DTT). GFP was expressed in a freshly prepared mixture of kit solution A (2 µL), kit solution B (1.5 µL), 50-fold diluted RF1 (0.5 µL), sfGFP template (0.1325 pmol, 35 ng) or water as control (0.25 µL), PSB (0.25 µL), and PrAMP (50, 5, 0.05 or 0 µmol/L) dissolved in water (0.5 µL). The reaction mixture was transferred into a black 384-well plate (flat bottom, Greiner Bio-One GmbH), covered with a lid, and incubated in a microplate reader (Gemini EM, Molecular Devices) at 37 °C for two hours. The fluorescence was recorded every 10 min (λexc = 485 nm, λem = 535 nm).

[7] = E. coli Rosetta pLysS lysate, protein ~0.5 g/L; 37 °C; RP-HPLC UV 214 nm
Protocol: Peptides (7.5 µg) were mixed with lysates of E. coli Rosetta pLysS or E. coli BW25113 (protein concentration ~0.5 g/L) and incubated on an orbital shaker (37 °C, 750 rpm). After 0, 4, 8 and 24 h, aliquots were taken in duplicate or triplicate, and trichloroacetic acid was added to achieve a final concentration of 3% (v/v). Samples were incubated on ice (10 min) and centrifuged (13,000× g, 5 min). The supernatant was neutralized with aqueous sodium hydroxide (1 mol/L) and stored at −20 °C. Samples were separated on an ACQUITY arc system (Waters GmbH, Eschborn, Germany) using a Jupiter C18 column (ID: 2 mm). Elution was achieved using a linear aqueous acetonitrile gradient containing 0.1% (v/v) formic acid. The absorbance was recorded on a 2489 UV/VIS detector at 214 nm (Waters GmbH), and mass spectra were acquired online with an ion trap mass spectrometer equipped with an electrospray ionization source (ESI-IT-MS, Esquire HCT, Bruker Daltonics, Billerica, MA, USA). Peptide recoveries and the corresponding metabolites were calculated based on the peak areas (UV) of the initial peptide peak area at 0 min.

[8] = 25% MHBII containing IPTG (0.1 mmol/L)
[9] = 33% TSB containing IPTG (0.1 mmol/L)
[10] = highest peptide concentration (50 µmol/L), relative to fluorescence without PrAMP, 37 °C, 2 h, twice in duplicate

In the case of `CC[C@H](C)[C@H](NC(=O)[C@H](Cc1ccc(O)cc1)NC(=O)[C@@H](NC(=O)[C@@H]1CCCN1C(=O)[C@H](CCCNC(=N)N)NC(=O)[C@H](CC(N)=O)NC(=O)[C@H](CC(N)=O)NC(=O)[C@H](CCCN)N=C(N(C)C)N(C)C)C(C)C)C(=O)N1CCC[C@H]1C(=O)N[C@@H](CCCNC(=N)N)C(=O)N1CCC[C@H]1C(=O)N[C@@H](CCCNC(=N)N)C(=O)N1CCC[C@H]1C(=O)N1CCC[C@H]1C(=O)N[C@@H](Cc1c[nH]cn1)C(=O)N1CCC[C@H]1C(=O)N[C@@H](CCCNC(=N)N)C(=O)N[C@@H](CC(C)C)C(N)=O` [Api88] ({Orn(α-tetramethylguanidino)}-NNRPVYIPRPRPPHPRL-NH2), the Kd [1] is listed as 1220 nM, the Ki [2] is listed as 110 nM and the Ki [3] is listed as 180 nM.

With `CC[C@H](C)[C@H](NC(=O)[C@H](Cc1ccc(O)cc1)NC(=O)[C@@H](NC(=O)[C@@H]1CCCN1C(=O)[C@H](CCCNC(=N)N)NC(=O)[C@H](CC(N)=O)NC(=O)[C@H](CC(N)=O)NC(=O)[C@H](CCCN)N=C(N(C)C)N(C)C)C(C)C)C(=O)N1CCC[C@H]1C(=O)N[C@@H](CCCNC(=N)N)C(=O)N1CCC[C@H]1C(=O)N[C@@H](CCCNC(=N)N)C(=O)N1CCC[C@H]1C(=O)N1CCC[C@H]1C(=O)N[C@@H](Cc1c[nH]cn1)C(=O)N1CCC[C@H]1C(=O)N[C@@H](CCCNC(=N)N)C(=O)N[C@@H](CC(C)C)C(=O)O` [Api137] ({Orn(α-tetramethylguanidino)}-NNRPVYIPRPRPPHPRL-OH) the “inhibition of the binding of cf-labeled Api805” value [4] was “none inhibited”, the “MIC, 25% MHBII” value (E. coli BW25113 ΔsbmA; [8]) was 8 µg/mL (≈ 3.49 µM) and the “MIC, 33% TSB” value (E. coli BW25113 ΔsbmA; [9]) was 64 µg/mL (≈ 27.9 µM). For the same compound, the “MIC, 25% MHBII” value [5, 8] was 4 µg/mL (≈ 1.75 µM), the “MIC, 33% TSB” value [5, 9] was 8 µg/mL (≈ 3.49 µM) and the “inhibition of protein translation in the absence of RF1, in words” value ([6]; GFP fluorescence, Figure 2) was “only a slight inhibition”. For the same compound, the “inhibition of protein translation in the presence of RF1” value [6, 10] was ~ 77%.

For `CC[C@H](C)[C@H](NC(=O)[C@@H]1CCCN1C(=O)[C@H](CCCNC(=N)N)NC(=O)[C@H](CC(N)=O)NC(=O)[C@H](CC(N)=O)NC(=O)CN)C(=O)N[C@@H](Cc1ccc(O)cc1)C(=O)N[C@H](C(=O)N1CCC[C@H]1C(=O)N[C@@H](CCCNC(=N)N)C(=O)N1CCC[C@H]1C(=O)N[C@@H](CCCNC(=N)N)C(=O)N1CCC[C@H]1C(=O)N1CCC[C@H]1C(=O)N[C@@H](Cc1c[nH]cn1)C(=O)N1CCC[C@H]1C(=O)N[C@@H](CCCNC(=N)N)C(=O)N1CCC[C@H]1C(=O)N[C@H](C(=O)N[C@@H](CCCNC(=N)N)C(=O)N[C@H](C(=O)O)C(C)C)[C@@H](C)CC)[C@@H](C)CC` [Api805] (H-GNNRPIYIPRPRPPHPRPIRV-OH; N-terminus assumed), the “half-life time in lysate” value [7] was > 24 h, the “inhibition of the binding of cf-labeled Api805” value [4] was “did not inhibit” and the “inhibition of protein translation in the absence of RF1” value [6, 10] was ~ 38%. The “inhibition of protein translation in the presence of RF1” value [6, 10] was ~ 52%.

From article PMC9025336 (Antibiotics, 2022)
